Results taken from ChEMBL document CHEMBL6120979, “Cell penetrable peptide nucleic acids targeting PDZK1IP1 with anti-inflammatory potential in human keratinocytes” (Bioorg Med Chem Lett, 2025).
Activity calls are given as the source filed them. No cut-off for these calls is given here.

How the values were obtained:
RNA [1] = assay: Binding affinity to complementary RNA (unknown origin) in sodium phosphate buffer assessed as melting temperature of PNA-RNA duplex; assay type: nucleic-acid assay
RNA [2] = assay: Binding affinity to complementary RNA (unknown origin) with mismatch bases in sodium phosphate buffer; assay type: nucleic-acid assay

| Compound | Tm (RNA [1]) | Activity (RNA [2]) |
| --- | --- | --- |
| Cc1cn(CC(=O)N(CCNC(=O)CN(CCNC(=O)CN(CCN)C(=O)Cn2ccc(N)nc2=O)C(=O)Cn2cc3cc(COCCN)[nH]c3nc2=O)CC(=O)NCCN(CC(=O)NCCN(CC(=O)NCCN(CC(=O)NCCN(CC(=O)NCCN(CC(=O)NCCN(CC(=O)NCCN(CC(=O)NCCN(CC(=O)NCCN(CC(=O)NCCN(CC(=O)NCCN(CC(=O)NCCN(CC(=O)NCCN(CC(=O)NCCN(CC(=O)NCCN(CC(=O)NCCN(CC(=O)NCCN(CC(=O)O)C(=O)Cn2ccc(N)nc2=O)C(=O)Cn2cnc3c(=O)[nH]c(NCCCCCCN)nc32)C(=O)Cn2ccc(N)nc2=O)C(=O)Cn2ccc(N)nc2=O)C(=O)Cn2cnc3c(=O)[nH]c(NCCCCCCN)nc32)C(=O)Cn2cnc3c(=O)[nH]c(N)nc32)C(=O)Cn2cc(C)c(=O)[nH]c2=O)C(=O)Cn2ccc(N)nc2=O)C(=O)Cn2cnc3c(N)ncnc32)C(=O)Cn2cnc3c(N)nc(NCCCCCN)nc32)C(=O)Cn2cnc3c(N)ncnc32)C(=O)Cn2cnc3c(=O)[nH]c(N)nc32)C(=O)Cn2cc(C)c(=O)[nH]c2=O)C(=O)Cn2ccc(N)nc2=O)C(=O)Cn2ccc(N)nc2=O)C(=O)Cn2cnc3c(N)nc(NCCCCCN)nc32)C(=O)Cn2ccc(N)nc2=O)c(=O)[nH]c1=O | 79.2 °C | inactive |
| Cc1cn(CC(=O)N(CCNC(=O)CN(CCNC(=O)CN(CCNC(=O)CN(CCNC(=O)CN(CCN)C(=O)Cn2ccc(N)nc2=O)C(=O)Cn2cc(C)c(=O)[nH]c2=O)C(=O)Cn2cc3cc(COCCN)[nH]c3nc2=O)C(=O)Cn2ccc(N)nc2=O)CC(=O)NCCN(CC(=O)NCCN(CC(=O)NCCN(CC(=O)NCCN(CC(=O)NCCN(CC(=O)NCCN(CC(=O)NCCN(CC(=O)NCCN(CC(=O)NCCN(CC(=O)O)C(=O)Cn2cc3cc(COCCN)[nH]c3nc2=O)C(=O)Cn2ccc(N)nc2=O)C(=O)Cn2cnc3c(N)nc(NCCCCCN)nc32)C(=O)Cn2ccc(N)nc2=O)C(=O)Cn2cnc3c(=O)[nH]c(N)nc32)C(=O)Cn2cnc3c(=O)[nH]c(NCCCCCCN)nc32)C(=O)Cn2cc(C)c(=O)[nH]c2=O)C(=O)Cn2cc3cc(COCCN)[nH]c3nc2=O)C(=O)Cn2ccc(N)nc2=O)c(=O)[nH]c1=O | 79 °C | inactive |
| Cc1cn(CC(=O)N(CCNC(=O)CN(CCNC(=O)CN(CCNC(=O)CN(CCNC(=O)CN(CCNC(=O)CN(CCNC(=O)CN(CCNC(=O)CN(CCNC(=O)CN(CCNC(=O)CN(CCNC(=O)CN(CCNC(=O)CN(CCNC(=O)CN(CCNC(=O)CN(CCN)C(=O)Cn2cc(C)c(=O)[nH]c2=O)C(=O)Cn2ccc(N)nc2=O)C(=O)Cn2cnc3c(N)nc(NCCCCCN)nc32)C(=O)Cn2cc3cc(COCCN)[nH]c3nc2=O)C(=O)Cn2cnc3c(=O)[nH]c(N)nc32)C(=O)Cn2cnc3c(=O)[nH]c(NCCCCCCN)nc32)C(=O)Cn2ccc(N)nc2=O)C(=O)Cn2cc(C)c(=O)[nH]c2=O)C(=O)Cn2cc3cc(COCCN)[nH]c3nc2=O)C(=O)Cn2ccc(N)nc2=O)C(=O)Cn2cc(C)c(=O)[nH]c2=O)C(=O)Cn2ccc(N)nc2=O)C(=O)Cn2cc3cc(COCCN)[nH]c3nc2=O)CC(=O)O)c(=O)[nH]c1=O | 80.4 °C | inactive |
| Cc1cn(CC(=O)N(CCNC(=O)CN(CCNC(=O)CN(CCNC(=O)CN(CCNC(=O)CN(CCNC(=O)CN(CCN)C(=O)Cn2ccc(N)nc2=O)C(=O)Cn2cnc3c(N)nc(NCCCCCN)nc32)C(=O)Cn2cnc3c(=O)[nH]c(N)nc32)C(=O)Cn2cnc3c(=O)[nH]c(N)nc32)C(=O)Cn2cc3cc(COCCN)[nH]c3nc2=O)CC(=O)NCCN(CC(=O)NCCN(CC(=O)NCCN(CC(=O)NCCN(CC(=O)NCCN(CC(=O)NCCN(CC(=O)NCCN(CC(=O)NCCN(CC(=O)O)C(=O)Cn2cnc3c(=O)[nH]c(NCCCCCCN)nc32)C(=O)Cn2cnc3c(=O)[nH]c(N)nc32)C(=O)Cn2cnc3c(=O)[nH]c(N)nc32)C(=O)Cn2cnc3c(=O)[nH]c(NCCCCCCN)nc32)C(=O)Cn2cc(C)c(=O)[nH]c2=O)C(=O)Cn2cc3cc(COCCN)[nH]c3nc2=O)C(=O)Cn2ccc(N)nc2=O)C(=O)Cn2ccc(N)nc2=O)c(=O)[nH]c1=O | – | inactive |
